Laboratory results published in PubChem BioAssay AID248 (DTP/NCI, 2004).
Values joined by “and” are separate entries in the source; they are usually repeats but may differ in a detail not shown here. Identical values can stand only once. Inconclusive results and toxic doses are left out.

System: L1210 leukemia ip in BDF1 mice, survival T/C
Assay: NCI In Vivo Anticancer Drug Screen. Data for tumor model L1210 Leukemia (intraperitoneal) in B6D2F1 (BDF1) mice
Settings: endpoint: mean survival time, higher = longer survival
Outline: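 Tumor cells were implanted, animals were treated, and survival was followed. The result divides the treated measurement by the vehicle-control measurement.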

[1] = dose: 100.0 mg/kg/injection, schedule: Q01DX001 (ip), vehicle: saline
[2] = dose: 200.0 mg/kg/injection, schedule: Q01DX001 (ip), vehicle: saline
[3] = dose: 400.0 mg/kg/injection, schedule: Q01DX001 (ip), vehicle: saline
[4] = dose: 100.0 mg/kg/injection, schedule: Q01DX009 (ip), vehicle: saline
[5] = dose: 200.0 mg/kg/injection, schedule: Q01DX009 (ip), vehicle: saline
[6] = dose: 400.0 mg/kg/injection, schedule: Q01DX009 (ip), vehicle: saline
[7] = dose: 25.0 mg/kg/injection, schedule: Q04DX003 (ip), vehicle: Klucel (hydroxypropylcellulose) (HPC)
[8] = dose: 50.0 mg/kg/injection, schedule: Q04DX003 (ip), vehicle: Klucel (hydroxypropylcellulose) (HPC)
[9] = dose: 100.0 mg/kg/injection, schedule: Q04DX003 (ip), vehicle: Klucel (hydroxypropylcellulose) (HPC)
[10] = dose: 75.0 mg/kg/injection, schedule: Q01DX001 (ip), vehicle: saline
[11] = dose: 100.0 mg/kg/injection, schedule: Q04DX003 (ip), vehicle: saline
[12] = dose: 200.0 mg/kg/injection, schedule: Q04DX003 (ip), vehicle: saline
[13] = dose: 400.0 mg/kg/injection, schedule: Q04DX003 (ip), vehicle: saline
[14] = dose: 150.0 mg/kg/injection, schedule: Q01DX001 (ip), vehicle: saline
[15] = dose: 300.0 mg/kg/injection, schedule: Q01DX001 (ip), vehicle: saline
[16] = dose: 100.0 mg/kg/injection, schedule: Q01DX001 (ip), vehicle: carboxymethylcellulose (CMC)
[17] = dose: 50.0 mg/kg/injection, schedule: Q01DX009 (ip), vehicle: saline with Tween-80
[18] = dose: 100.0 mg/kg/injection, schedule: Q01DX009 (ip), vehicle: saline with Tween-80
[19] = dose: 200.0 mg/kg/injection, schedule: Q01DX009 (ip), vehicle: saline with Tween-80
[20] = dose: 200.0 mg/kg/injection, schedule: Q04DX003 (ip), vehicle: Klucel (hydroxypropylcellulose) (HPC)
[21] = dose: 400.0 mg/kg/injection, schedule: Q04DX003 (ip), vehicle: Klucel (hydroxypropylcellulose) (HPC)
[22] = dose: 100.0 mg/kg/injection, schedule: Q01DX009 (ip), vehicle: other
[23] = dose: 400.0 mg/kg/injection, schedule: Q01DX009 (ip), vehicle: other

Structure (SMILES): O=C(Nc1ccc(Cl)cc1)OCCN(CCOC(=O)Nc1ccc(Cl)cc1)Cc1ccccc1
- T/C [1]: 101 % of control
- T/C [2]: 95 % of control
- T/C [3]: 95 % of control

Structure (SMILES): CCOC1C(=O)c2ccccc2CCN1S(=O)(=O)c1ccc(C)cc1 (configuration not stated)
- T/C [1]: 96 % of control
- T/C [4]: 101 % of control
- T/C [2]: 100 % of control
- T/C [5]: 95 % of control
- T/C [3]: 103 % of control
- T/C [6]: 94 % of control

Structure (SMILES): Cn1cc(Br)c2ccccc2c1=O
- T/C [7]: 87 % of control
- T/C [8]: 101 % of control
- T/C [9]: 94 % of control and 124 % of control

Structure (SMILES): O=C1/C(=C\c2cccc3ccccc23)COC/C1=C/c1cccc2ccccc12
- T/C [4]: 93 % of control
- T/C [5]: 97 % of control
- T/C [6]: 98 % of control

Structure (SMILES): CCOc1c(C(=O)O)cnc2ccccc12
- T/C [10]: 100 % of control

Structure (SMILES): CN=C(N)C(C)SS(=O)(=O)O (configuration not stated)
- T/C (dose: 50.0 mg/kg/injection, schedule: Q01DX009 (ip), vehicle: Klucel (hydroxypropylcellulose) (HPC)): 101 % of control
- T/C (dose: 50.0 mg/kg/injection, schedule: Q04DX002 (ip), vehicle: Klucel (hydroxypropylcellulose) (HPC)): 106 % of control
- T/C (dose: 100.0 mg/kg/injection, schedule: Q01DX009 (ip), vehicle: Klucel (hydroxypropylcellulose) (HPC)): 107 % of control
- T/C (dose: 100.0 mg/kg/injection, schedule: Q04DX002 (ip), vehicle: Klucel (hydroxypropylcellulose) (HPC)): 92 % of control
- T/C (dose: 200.0 mg/kg/injection, schedule: Q01DX009 (ip), vehicle: Klucel (hydroxypropylcellulose) (HPC)): 104 % of control
- T/C (dose: 200.0 mg/kg/injection, schedule: Q04DX002 (ip), vehicle: Klucel (hydroxypropylcellulose) (HPC)): 89 % of control and 91 % of control

Structure (SMILES): CO/C(N)=N\C(=O)NC1CC(OC(=O)c2ccc(C)cc2)C(COC(=O)c2ccc(C)cc2)O1 (configuration not stated)
- T/C [11]: 98 % of control
- T/C [12]: 104 % of control
- T/C [13]: 96 % of control

Structure (SMILES): N=c1ccccn1CC(O)COc1cccc([N+](=O)[O-])c1 (configuration not stated)
- T/C (dose: 100.0 mg/kg/injection, schedule: Q04DX002 (ip), vehicle: other): 97 % of control
- T/C (dose: 200.0 mg/kg/injection, schedule: Q04DX002 (ip), vehicle: other): 93 % of control

Structure (SMILES): Cc1ccc(CC(O)(CC(O)(c2ccccc2)c2ccccc2)c2ccccc2)cc1C (configuration not stated)
- T/C [10]: 92 % of control
- T/C (dose: 75.0 mg/kg/injection, schedule: Q04DX003 (ip), vehicle: saline): 94 % of control
- T/C [14]: 92 % of control
- T/C (dose: 150.0 mg/kg/injection, schedule: Q04DX003 (ip), vehicle: saline): 91 % of control
- T/C [15]: 90 % of control
- T/C (dose: 300.0 mg/kg/injection, schedule: Q04DX003 (ip), vehicle: saline): 94 % of control

Structure (SMILES): S=c1nc[nH]c2[nH]ncc12
- T/C [16]: 108 % of control
- T/C (dose: 200.0 mg/kg/injection, schedule: Q01DX001 (ip), vehicle: carboxymethylcellulose (CMC)): 93 % of control
- T/C (dose: 400.0 mg/kg/injection, schedule: Q01DX001 (ip), vehicle: carboxymethylcellulose (CMC)): 93 % of control

Structure (SMILES): C1=C2CC3(CCC2C(OCc2ccccc2)CC1)OCCO3 (configuration not stated)
- T/C [17]: 100 % of control
- T/C [18]: 92 % of control
- T/C [19]: 94 % of control

Structure (SMILES): O=[N+]([O-])c1ccc(Cl)c(C(=S)N2CCCCC2)c1
- T/C [9]: 99 % of control
- T/C [20]: 96 % of control
- T/C [21]: 96 % of control

Structure (SMILES): CCc1ccc(NC(=O)N(CCCl)N=O)cc1
- T/C (dose: 10.0 mg/kg/injection, schedule: Q01DX009 (ip), vehicle: Klucel (hydroxypropylcellulose) (HPC)): 168 % of control and 175 % of control
- T/C (dose: 20.0 mg/kg/injection, schedule: Q01DX009 (ip), vehicle: Klucel (hydroxypropylcellulose) (HPC)): 157 % of control and 172 % of control
- T/C [7]: 124 % of control
- T/C (dose: 40.0 mg/kg/injection, schedule: Q01DX009 (ip), vehicle: Klucel (hydroxypropylcellulose) (HPC)): 88 % of control
- T/C [8]: 150 % of control and 159 % of control
- T/C [16]: 101 % of control
- T/C [20]: 105 % of control

Structure (SMILES): OCCc1nn[nH]n1
- T/C [11]: 104 % of control
- T/C [12]: 93 % of control
- T/C [13]: 98 % of control

Structure (SMILES): CC1C2CCC(C2)C(C)C1Br (configuration not stated)
- T/C [22]: 99 % of control
- T/C (dose: 100.0 mg/kg/injection, schedule: Q04DX003 (ip), vehicle: other): 102 % of control
- T/C (dose: 200.0 mg/kg/injection, schedule: Q01DX009 (ip), vehicle: other): 96 % of control
- T/C (dose: 200.0 mg/kg/injection, schedule: Q04DX003 (ip), vehicle: other): 102 % of control
- T/C [23]: 96 % of control
- T/C (dose: 400.0 mg/kg/injection, schedule: Q04DX003 (ip), vehicle: other): 109 % of control

Structure (SMILES): CCCCCCCCCCCCCCCc1cc(=O)n(-c2cccc([N+](=O)[O-])c2)n1C
- T/C [9]: 96 % of control
- T/C [20]: 94 % of control
- T/C [21]: 92 % of control

Structure (SMILES): CCC(C(=O)O)=C1CCCCC1
- T/C [1]: 95 % of control
- T/C [2]: 95 % of control
- T/C [3]: 103 % of control

Structure (SMILES): COc1ccc(N)c(CC2c3ccccc3CCN2C)c1 (configuration not stated)
- T/C (dose: 10.0 mg/kg/injection, schedule: Q01DX001 (ip), vehicle: carboxymethylcellulose (CMC)): 103 % of control
- T/C (dose: 20.0 mg/kg/injection, schedule: Q01DX001 (ip), vehicle: carboxymethylcellulose (CMC)): 105 % of control
- T/C (dose: 40.0 mg/kg/injection, schedule: Q01DX001 (ip), vehicle: carboxymethylcellulose (CMC)): 105 % of control
- T/C (dose: 80.0 mg/kg/injection, schedule: Q01DX001 (ip), vehicle: carboxymethylcellulose (CMC)): 100 % of control
- T/C [16]: 96 % of control

Structure (SMILES): CCCCCCCCCC(=O)CCCCCCC
- T/C (dose: 25.0 mg/kg/injection, schedule: Q01DX009 (ip), vehicle: other): 105 % of control
- T/C (dose: 50.0 mg/kg/injection, schedule: Q01DX009 (ip), vehicle: other): 102 % of control
- T/C [22]: 95 % of control and 97 % of control
- T/C [23]: 98 % of control

Structure (SMILES): Cn1ncc(C(N)=O)c1N
- T/C [4]: 100 % of control
- T/C (dose: 100.0 mg/kg/injection, schedule: Q04DX002 (ip), vehicle: saline): 87 % of control
- T/C [5]: 103 % of control
- T/C (dose: 200.0 mg/kg/injection, schedule: Q04DX002 (ip), vehicle: saline): 87 % of control
- T/C [6]: 96 % of control
- T/C (dose: 400.0 mg/kg/injection, schedule: Q04DX002 (ip), vehicle: saline): 90 % of control

Structure (SMILES): OC(c1ccccc1)C(c1ccccc1)N1CCCC1 (configuration not stated)
- T/C [10]: 94 % of control
- T/C [14]: 97 % of control
- T/C [15]: 92 % of control

Structure (SMILES): Cc1ccccc1Nc1n[nH]c(=S)s1
- T/C [17]: 94 % of control
- T/C [18]: 101 % of control
- T/C (dose: 100.0 mg/kg/injection, schedule: Q04DX003 (ip), vehicle: saline with Tween-80): 97 % of control
- T/C [19]: 97 % of control
- T/C (dose: 200.0 mg/kg/injection, schedule: Q04DX003 (ip), vehicle: saline with Tween-80): 95 % of control

Structure (SMILES): CC1(C)Cc2cccc(C(O)(CCN3CCCCC3)c3ccccc3)c2O1 (configuration not stated)
- T/C (dose: 20.0 mg/kg/injection, schedule: Q01DX001 (ip), vehicle: Klucel (hydroxypropylcellulose) (HPC)): 96 % of control
- T/C (dose: 40.0 mg/kg/injection, schedule: Q01DX001 (ip), vehicle: Klucel (hydroxypropylcellulose) (HPC)): 98 % of control
- T/C (dose: 80.0 mg/kg/injection, schedule: Q01DX001 (ip), vehicle: Klucel (hydroxypropylcellulose) (HPC)): 92 % of control
- T/C (dose: 100.0 mg/kg/injection, schedule: Q01DX001 (ip), vehicle: Klucel (hydroxypropylcellulose) (HPC)): 91 % of control

Structure (SMILES): Nc1ccc2c(c1)CCC2=O
- T/C (dose: 100.0 mg/kg/injection, schedule: Q04DX002 (ip), vehicle: saline with Tween-80): 98 % of control
- T/C (dose: 200.0 mg/kg/injection, schedule: Q04DX002 (ip), vehicle: saline with Tween-80): 102 % of control
- T/C (dose: 400.0 mg/kg/injection, schedule: Q04DX002 (ip), vehicle: saline with Tween-80): 90 % of control

Structure (SMILES): C/C=C(\C)C(=Nc1ccc(Cl)c(Cl)c1)N(C)C
- T/C (dose: 222.0 mg/kg/injection, schedule: Q01DX Z (ip), vehicle: saline): 102 % of control
- T/C (dose: 333.0 mg/kg/injection, schedule: Q01DX Z (ip), vehicle: saline): 100 % of control
- T/C (dose: 500.0 mg/kg/injection, schedule: Q01DX Z (ip), vehicle: saline): 118 % of control
